# Test results from ChEMBL document CHEMBL4819111, “Steroidal alkaloids isolated from Veratrum grandiflorum Loes. as novel Smoothened inhibitors with anti-proliferation effects on DAOY medulloblastoma cells” (Bioorg Med Chem, 2021).
# pIC50: −log10 of the molar value.
# Experiments:
# Daoy [1] = assay: Antiproliferative activity against human DAOY cells assessed as cell viability at 10 to 30 uM incubated for 24 hrs by MTT assay relative to control; format: functional; conditions: dose 10-30 µM
# [2] = biological target: Protein smoothened (Homo sapiens) (UniProt Q99835); assay: Binding affinity to recombinant human Flag-6 x His-tagged Smo expressed in human HEK293T cells assessed as reduction in BODIPY-Cyclopamine binding by measuring fluorescence intensity at 30 uM incubated for 2 to 4 hrs by fluorescence microscopic competitive binding analysis relative to control; format: cell-based; set-up: scale not given: the % may be the effect or the level left; conditions: time 2-4 hrs
# Chain of Protein smoothened (Homo sapiens) (Q99835 whole entry): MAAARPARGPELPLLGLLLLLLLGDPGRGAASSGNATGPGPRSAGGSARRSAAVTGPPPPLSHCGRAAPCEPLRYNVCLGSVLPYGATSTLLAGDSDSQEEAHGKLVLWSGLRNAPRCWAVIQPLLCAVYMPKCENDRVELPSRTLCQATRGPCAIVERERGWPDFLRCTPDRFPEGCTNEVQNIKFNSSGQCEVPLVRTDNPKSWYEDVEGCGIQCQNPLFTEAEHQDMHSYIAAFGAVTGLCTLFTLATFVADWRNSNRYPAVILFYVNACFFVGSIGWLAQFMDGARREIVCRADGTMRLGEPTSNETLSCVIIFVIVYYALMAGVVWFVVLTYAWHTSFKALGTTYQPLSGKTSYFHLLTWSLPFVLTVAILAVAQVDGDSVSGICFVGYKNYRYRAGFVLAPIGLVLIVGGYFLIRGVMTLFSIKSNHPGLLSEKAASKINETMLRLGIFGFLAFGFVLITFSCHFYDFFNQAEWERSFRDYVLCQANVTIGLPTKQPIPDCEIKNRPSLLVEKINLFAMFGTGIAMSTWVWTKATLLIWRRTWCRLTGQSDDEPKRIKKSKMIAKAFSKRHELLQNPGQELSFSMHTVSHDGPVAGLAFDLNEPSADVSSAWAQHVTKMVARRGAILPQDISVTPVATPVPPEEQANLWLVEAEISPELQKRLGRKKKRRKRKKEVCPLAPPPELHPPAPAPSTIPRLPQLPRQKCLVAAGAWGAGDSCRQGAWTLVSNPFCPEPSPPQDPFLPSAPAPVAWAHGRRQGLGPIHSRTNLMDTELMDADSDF
# [3] = Inhibition of hedgehog pathway in mouse Shh Light II cells transfected with Renilla luciferase and firefly luciferase incubated for 48 hrs by dual luciferase reporter gene assay; format: cell-based
# [4] = biological target: Protein smoothened (Homo sapiens) (UniProt Q99835); assay: Binding affinity to recombinant human Flag-6 x His-tagged Smo expressed in human HEK293T cells assessed as reduction in BODIPY-Cyclopamine binding by measuring fluorescence intensity at 3 uM incubated for 2 to 4 hrs by fluorescence microscopic competitive binding analysis relative to control; format: cell-based; set-up: scale not given: the % may be the effect or the level left; conditions: time 2-4 hrs
# [5] = biological target: Protein smoothened (Homo sapiens) (UniProt Q99835); assay: Binding affinity to recombinant human Flag-6 x His-tagged Smo expressed in human HEK293T cells assessed as reduction in BODIPY-Cyclopamine binding by measuring fluorescence intensity incubated for 2 to 4 hrs by fluorescence microscopic based competitive binding analysis; format: cell-based; conditions: dose 3-30 µM, time 2-4 hrs
# Daoy [6] = assay: Antiproliferative activity against human DAOY cells assessed as cell viability at 30 uM incubated for 24 hrs by MTT assay relative to control; format: functional; conditions: read-out: Activity
# Daoy [7] = assay: Antiproliferative activity against human DAOY cells assessed as reduction in cell viability incubated for 24 hrs by MTT assay; format: functional, cell-based
# Daoy [8] = assay: Antiproliferative activity against human DAOY cells assessed as cell viability at 0.2 uM incubated for 24 hrs by MTT assay relative to control; format: functional; conditions: read-out: Activity
Structure (SMILES),Activity [2],pIC50 [3],Activity [5],Activity (Daoy [1]),Activity [4],viability at 30 µM (Daoy [6]),pIC50 (Daoy [7]),inhibition (Daoy [7]),viability at 0.2 µM (Daoy [8])
CC1=C2C(=O)[C@H]3C(CC=C4C[C@@H](O)CC[C@@]43C)[C@@H]2CC[C@]12O[C@@H]1C[C@H](C)CN[C@H]1[C@H]2C (stereo not given in full),,5.63,,79.45%,22.3%,,,,
C[C@H]1CCC([C@H](C)[C@H]2CC[C@H]3[C@@H]4CC=C5C[C@@H](O)CC[C@]5(C)[C@H]4CC[C@]23C)=NC1,53.2%,5.49,Dose-Dependent Effect,79.45%,,,,,
C[C@H]1CCC([C@@H](C)[C@H]2CC[C@H]3[C@@H]4CC=C5C[C@@H](O)CC[C@]5(C)[C@H]4CC[C@]23C)=NC1 [VERAZINE],47.1%,5.95,Dose-Dependent Effect,79.45%,,,,,
C[C@@H]1CCN=C([C@H](C)[C@H]2CC[C@H]3[C@@H]4CC=C5C[C@@H](O)CC[C@]5(C)[C@H]4CC[C@]23C)C1=O,54.5%,5.79,Dose-Dependent Effect,79.45%,,,,,
CS(=O)(=O)c1ccc(C(=O)Nc2ccc(Cl)c(-c3ccccn3)c2)c(Cl)c1 [VISMODEGIB],,7.15,,,,,,,91.5%
C[C@@H]1CCN=C([C@@H](C)[C@H]2CC[C@H]3[C@@H]4CC=C5C[C@@H](O)CC[C@]5(C)[C@H]4CC[C@]23C)C1=O,58.7%,5.24,Dose-Dependent Effect,79.45%,,,,,

# More lines, main results first:
Activity [2],pIC50 [3],Activity [5],Structure (SMILES),Activity (Daoy [1]),Activity [4],viability at 30 µM (Daoy [6]),pIC50 (Daoy [7]),inhibition (Daoy [7]),viability at 0.2 µM (Daoy [8])
42.8%,6.02,,C[C@H]1CC[C@@H]2N(C1)C[C@H]1[C@@H]3C[C@H]4[C@@H](CC=C5C[C@@H](O)CC[C@@]54C)[C@@H]3C[C@H](O)[C@@H]1[C@]2(C)O,79.45%,,,,,
45.1%,6.14,,C[C@H]1CC[C@@H]2[C@@H](C)[C@H]3[C@H](C[C@H]4[C@@H]5CC=C6C[C@@H](O[C@@H]7O[C@H](CO)[C@@H](O)[C@H](O)[C@H]7O[C@@H]7O[C@@H](C)[C@H](O)[C@@H](O)[C@H]7O)CC[C@]6(C)[C@H]5CC[C@]34C)N2C1,,,13%,5.27,Dose-Dependent Effect,
,4.91,,C[C@H]1CC[C@@H]([C@@H](C)[C@]2(C)CCC3C2=CCC2C3CC=C3C[C@@H](O[C@@H]4O[C@H](CO)[C@@H](O)[C@H](O)[C@H]4O[C@@H]4O[C@@H](C)[C@H](O)[C@@H](O)[C@H]4O)CC[C@@]32C)NC1 (stereo not given in full),79.45%,53.3%,,,,
69.4%,4.84,,CC[C@H](C)C(=O)O[C@H]1[C@H](O)[C@H]2[C@@H](CN3C[C@@H](C)CC[C@H]3[C@@]2(C)O)[C@@H]2C[C@@]34O[C@]5(O)[C@@H]([C@@H](O)[C@@H](O)[C@H]3[C@@]21O)[C@]4(C)CC[C@@H]5O,79.45%,,,,,
